Laboratory results: the supplement of paper PMC3974653
Structures can show the parent of a compound that is named as a salt.

Test system: MTT (mouse pheochromocytoma)
Test: IC50 of cell viability (ATP content)
Settings: (24 or 48 h)
In short: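 MTT mouse pheochromocytoma cells (5 µl of 200,000 cells/ml per well, white 1536-well plates, DMEM with 5% FBS and 1% horse serum) were cultured overnight at 37°C, 5% CO2. They then received 23 nl library compound in DMSO by pintool at 8 concentrations (final 0.5 nM to 46 µM) for 24 or 48 hrs. CellTiter-Glo ATP luminescence was read after 15 minutes. Signals were normalised to positive-control (100% inhibition) and DMSO (0%) wells, and IC50 came from a four-parameter logistic fit.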

SMILES | IC50 of cell viability
CC1=CC(=C(O)C(=C1C\C2=N\CCN2)C)C(C)(C)C [OXYMETAZOLINE] | > 46 µM
Cl.CN\1CCC\N=C1COC(=O)C(O)(C2CCCCC2)C3=CC=CC=C3 (stereo not drawn) [OXYPHENCYCLIMINE HYDROCHLORIDE] | > 46 µM
CC[N+](C)(CC)CCOC(=O)C(O)(c1ccccc1)C1CCCCC1 (stereo not drawn) [OXYPHENONIUM BROMIDE] | > 46 µM
CN(C)C1C(=O)C(C(N)=O)C(=O)C2(O)C(=O)C3C(=O)c4c(O)cccc4C(C)(O)C3C(O)C12 (stereo not drawn) [OXYTETRACYCLINE] | > 46 µM
CCC(C)C1NC(=O)C(Cc2ccc(O)cc2)NC(=O)C(N)CSSCC(C(=O)N2CCCC2C(=O)NC(CC(C)C)C(=O)NCC(N)=O)NC(=O)C(CC(N)=O)NC(=O)C(CCC(N)=O)NC1=O (stereo not drawn) [OXYTOCIN] | > 46 µM
CC1CC(=O)N/N=C1/C2=CC=C(NCC(C)(C)NCC(O)COC3=C(C=CC(=C3)Cl)C#N)C=C2 (stereo not drawn) [Oberadilol] | > 46 µM
CCCCC(CC)COC(=O)/C=C/c1ccc(OC)cc1 (stereo not drawn) [Octinoxate] | > 46 µM
CCCCC(CC)COC(=O)c1ccccc1O (stereo not drawn) [Octisalate] | > 46 µM
CCCCC(CC)COC(=O)C(C#N)=C(c1ccccc1)c1ccccc1 (stereo not drawn) [Octocrylene] | > 46 µM
C[C@@H](O)[C@@H]1NC(=O)[C@H](CCCCN)NC(=O)[C@@H](Cc2c[nH]c3ccccc23)NC(=O)[C@H](Cc2ccccc2)NC(=O)[C@@H](NC(=O)[C@H](N)Cc2ccccc2)CSSC[C@@H](C(=O)N[C@H](CO)[C@@H](C)O)NC1=O [Octreotide] | > 46 µM
C[C@@H]1COC2=C3N1\C=C(\C(O)=O)C(=O)C3=CC(=C2N4CCN(C)CC4)F [Ofloxacin] | > 46 µM
CO[C@H]1C[C@H](O[C@@H]2[C@H](C)[C@H](O[C@@H]3O[C@@H](C)C[C@@H](N(C)C)[C@H]3O)[C@H](C)C[C@]3(CO3)C(=O)[C@H](C)[C@H](O)[C@H](C)[C@H](C)OC(=O)[C@@H]2C)O[C@@H](C)[C@H]1O [Oleandomycin phosphate] | > 46 µM
CCCCCCCC/C=C\CCCCCCCC(=O)O [Oleic acid] | > 46 µM
CCCCCCCC/C=C\CCCCCCCC(=O)NCc1ccc(O)c(OC)c1 [Olvanil] | > 46 µM
COc1ccc2[nH]c([S+]([O-])Cc3ncc(C)c(OC)c3C)nc2c1 (stereo not drawn) [Omeprazole] | > 46 µM
Cc1nccn1C[C@@H]1CCc2c(c3ccccc3n2C)C1=O [Ondansetron Hydrochloride] | > 46 µM
Cc1nccn1CC1CCc2c(c3ccccc3n2C)C1=O (stereo not drawn) [Ondansetron] | > 46 µM
COc1ccc(/C=N/NC(=O)c2ccncc2)c(C(=O)O)c1OC [Opiniazida] | > 46 µM
OCCN1CCN(CCCN2C3=C(C=CC=C3)\C=C/C4=C2C=CC=C4)CC1 [Opipramol HCl] | > 46 µM
C[C@@H]1CN(c2c(F)c(F)c3c(=O)c(C(=O)O)cn(C4CC4)c3c2F)C[C@H](C)N1 [Orbifloxacin] | > 46 µM
Cc1ncc([N+](=O)[O-])n1C[C@H](O)CCl [Ornidazole] | > 46 µM

SMILES | IC50 of cell viability
O=C(O)c1cc(O)nc(O)n1 [Orotic acid] | > 46 µM
Cc1ccccc1C(OCCN(C)C)c1ccccc1 (stereo not drawn) [Orphenadrine citrate salt] | > 46 µM
CCCN(CCC)c1c([N+](=O)[O-])cc([S+](N)(=O)[O-])cc1[N+](=O)[O-] [Oryzalin] | > 46 µM
O=C(Nc1ccc(O)cc1)c1ccccc1O [Osalmid] | > 46 µM
Cc1onc(-c2ccccc2)c1C(=O)N[C@@H]1C(=O)N2C1SC(C)(C)[C@@H]2C(=O)[O-] (stereo partly drawn) [Oxacillin sodium salt] | > 46 µM
CCN(CC)CCc1nc(-c2ccccc2)no1.O=C(O)CC(O)(CC(=O)O)C(=O)O [Oxalamine citrate salt] | > 46 µM
CC(C)NC[C@H]1CCc2cc(CO)c([N+](=O)[O-])cc2N1 [Oxamniquine] | > 46 µM
O=c1[nH]c2ccccc2n1CCCN1CCN(C(c2ccccc2)c2ccccc2)CC1 [Oxatomide] | > 46 µM
O=C1Nc2ccc(Cl)cc2C(c2ccccc2)=NC1O (stereo not drawn) [Oxazepam] | > 46 µM
CC[C@H]1C[C@H]2[C@@H]3CCC/4=C/C(=O)CC[C@@H]4[C@H]3CC[C@]2(C)[C@H]1O [Oxendolone] | > 46 µM
CN(C(=O)CN(CCO)CC(=O)N(C)C(C)(C)Cc1ccccc1)C(C)(C)Cc1ccccc1 [Oxethazaine] | > 46 µM
COC(=O)Nc1nc2ccc([S+]([O-])c3ccccc3)cc2[nH]1 (stereo not drawn) [Oxfendazole] | > 46 µM
NC(=O)CN1CC(O)CC1=O (stereo not drawn) [Oxiracetam] | > 46 µM
C=CCOc1ccccc1OC[C@H](O)CNC(C)C [Oxprenolol hydrochloride] | > 46 µM
COc1ccc(C(=O)c2ccccc2)c(O)c1 [Oxybenzone] | > 46 µM
CCN(CC)CC#CCOC(=O)[C@@](O)(c1ccccc1)C1CCCCC1 [Oxybutynin chloride] | > 46 µM
C[C@]12C/C(=C/O)C(=O)C[C@@H]1CC[C@@H]1[C@@H]2CC[C@@]2(C)[C@H]1CC[C@]2(C)O [Oxymetholone] | > 46 µM
COc1cccc(C(=O)CCN[C@@H](C)[C@H](O)c2ccccc2)c1 [Oxyphedrine] | > 46 µM
CCCC[C@H]1C(=O)N(c2ccccc2)N(c2ccc(O)cc2)C1=O [Oxyphenbutazone] | > 46 µM
CC(=O)Oc1ccc(C2(c3ccc(OC(C)=O)cc3)C(=O)Nc3ccccc32)cc1 [Oxyphenisatin Acetate] | > 46 µM
CN(C)[C@H]\1[C@@H]2[C@@H](O)[C@H]3\C(=C(O)/[C@]2(O)C(=O)\C(=C1O)C(N)=O)C(=O)C4=C(C=CC=C4O)[C@@]3(C)O [Oxytetracycline HCl] | > 46 µM

SMILES | IC50 of cell viability
O=C(O)/C=C\c1ccc(Cn2ccnc2)cc1 [Ozagrel hydrochloride] | > 46 µM
CNC(C)C(O)c1ccc(O)cc1 (stereo not drawn) [P-HYDROXYEPHEDRINE HYDROCHLORIDE] | > 46 µM
CNC(C)[C@@H](O)c1ccc(O)cc1 (stereo partly drawn) [P-HYDROXYEPHEDRINE HYDROCHLORIDE] | > 46 µM
CCC(=O)c1ccc(O)cc1 [P-HYDROXYPROPIOPHENONE] | > 46 µM
Nc1ccc(N)cc1 [P-PHENYLENEDIAMINE] | > 46 µM
O=C1c2cccc3c2[C@@H](CCC3)CN1[C@@H]1CN2CCC1CC2 [PALONOSETRON HYDROCHLORIDE] | > 46 µM
Cn1c(=O)c2[nH]c(Br)nc2n(C)c1=O [PAMABROM] | > 46 µM
CCOC(=O)Cn1cccc1-c1nc(-c2ccc(OC)cc2)c(-c2ccc(OC)cc2)s1 [PAMICOGREL] | > 46 µM
CC(=O)OC1C([N+]2(C)CCCCC2)C[C@H]2C3CC[C@H]4C[C@H](OC(C)=O)C([N+]5(C)CCCCC5)CC4(C)[C@@H]3CCC12C (stereo partly drawn) [PANCURONIUM] | > 46 µM
CC(C)(CO)[C@@H](O)C(=O)NCCC(=O)NCCSSCCNC(=O)CCNC(=O)[C@H](O)C(C)(C)CO [PANTETHINE] | > 46 µM
COc1ccnc(C[S+]([O-])c2nc3cc(OC(F)F)ccc3[nH]2)c1OC (stereo not drawn) [PANTOPRAZOLE] | > 46 µM
Clc1ccc(Cl)cc1 [PARADICHLOROBENZENE] | > 46 µM
CC1OC(C)OC(C)O1 (stereo not drawn) [PARALDEHYDE] | > 46 µM
c1ccc2c(c1)Sc1ccccc1N2CCN1CCCC1 [PARATHIAZINUM] | > 46 µM
CCOc1ccc(C(=O)OCCN(CC)CC)cc1 [PARETHOXYCAINE HYDROCHLORIDE] | > 46 µM
C#CCOC(C(=O)OCCN(C)C)(c1ccccc1)c1ccccc1 [PARGEVERINUM] | > 46 µM
NC[C@@H]1O[C@H](OC2[C@@H](CO)O[C@@H](OC3[C@H](O)[C@H](N)C[C@H](N)[C@H]3OC3O[C@H](CO)[C@@H](O)[C@H](O)[C@@H]3N)[C@H]2O)C(N)[C@H](O)[C@@H]1O (stereo partly drawn) [PAROMOMYCIN SULFATE] | > 46 µM
C[C@H]1COc2c(C3(N)CC3)c(F)cc3c(=O)c(C(=O)O)cn1c23 [PAZUFLOXACIN] | > 46 µM
CC(C(=O)O)c1ccc(/C=C2\CCCCC2=O)cc1 (stereo not drawn) [PELUBIPROFEN] | > 46 µM
Nc1nc(O)c2c(CCc3ccc(C(=O)N[C@H](CCC(=O)[O-])C(=O)[O-])cc3)c[nH]c2n1 [PEMETREXED] | > 46 µM
Cc1cccn2c(=O)c(-c3nnn[n-]3)cnc12 [PEMIROLAST POTASSIUM] | > 46 µM
